From publication PMC8359193, “Summary of reference chemicals evaluated by the fish short‐term reproduction assay, OECD TG229, using Japanese Medaka, Oryzias latipes” (Journal of Applied Toxicology, 2021)

Target: T1, medaka Esr1 (mEsr1) (Oryzias latipes, UniProt P50241)
T1 construct: expressed in transfected cells; host or cells: HEK293 (human embryonic kidney cells), transient transfection with FuGENE HD
T1 sequence (P50241 1-620): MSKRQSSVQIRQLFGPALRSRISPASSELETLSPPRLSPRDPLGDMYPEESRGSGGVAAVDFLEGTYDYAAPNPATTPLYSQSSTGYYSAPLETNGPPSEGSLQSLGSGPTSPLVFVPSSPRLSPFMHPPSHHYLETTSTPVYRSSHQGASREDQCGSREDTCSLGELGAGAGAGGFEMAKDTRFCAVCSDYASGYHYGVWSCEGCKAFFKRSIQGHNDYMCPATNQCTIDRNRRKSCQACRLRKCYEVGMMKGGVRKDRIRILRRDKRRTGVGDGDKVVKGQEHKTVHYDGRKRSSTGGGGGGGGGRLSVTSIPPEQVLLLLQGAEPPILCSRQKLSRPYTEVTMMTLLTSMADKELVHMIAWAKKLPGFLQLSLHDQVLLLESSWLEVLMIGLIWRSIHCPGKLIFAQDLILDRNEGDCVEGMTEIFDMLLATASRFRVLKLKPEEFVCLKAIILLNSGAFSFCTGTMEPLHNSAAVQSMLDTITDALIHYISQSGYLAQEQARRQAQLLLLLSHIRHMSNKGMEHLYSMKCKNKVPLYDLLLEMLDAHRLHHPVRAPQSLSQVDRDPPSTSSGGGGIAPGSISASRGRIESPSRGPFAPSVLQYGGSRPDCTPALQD
Assay: Medaka Esr1 reporter gene assay (RGA), antagonist assay with 1 nM E2, HEK293 cells
Assay type: cell-based, Japanese medaka (Oryzias latipes)
Experimental: To support interpretation of the biological effects observed in the FSTRA studies, in vitro RGAs using medaka Esr1 (mEsr1) and medaka ARβ (mARβ) were performed for the 16 test chemicals. In the present study, Esr1 and ARβ, which are ancestral subtypes among Esrs and ARs in Japanese medaka, were selected based on the phylogenetical analyses of Esr and AR with each receptor RGAs (Ogino et al., [2016], [2018]; Tohyama et al., [2015]).
The mEsr1 RGA consisting of agonist and antagonist assays were performed according to the methods previously reported (Katsu et al., [2010]; Lange et al., [2012]; Miyagawa et al., [2014]). Briefly, human embryonic kidney cells 293 (HEK293), precultured, were seeded in 96‐well plates at 15,000 cells/well with 200 μl of culture medium, phenol‐red‐free Dulbecco's Modified Eagle's medium (ThermoFisher Scientific K.K., Tokyo, Japan) supplemented with 2‐mM L‐glutamine and 10% charcoal/dextran‐treated fetal bovine serum (Hyclone, UT, USA), and then incubated for 24 h in 5% CO2 at 37°C. After the 24‐h incubation, 20 μl of test medium containing 40 ng of medaka Esr1/pcDNA3.1, 80 ng of ERE‐TK‐Luc, and 20 ng of pRL‐TK‐Rlu and 1.2 μL of transfection reagent FuGENE HD (Promega, WI, USA) were added into each well. The assay plates were incubated for another 4 h in order to transfect the three vectors into the HEK293 cells. After the vectors were successfully transfected, in agonist assay, 24 μl of concentrated test chemical solution was applied to the test medium in the plate wells. […] After chemical treatment for 40 h, luciferase activity of the cells was measured, and the promoter activity was calculated as firefly (Photinus pyralis)‐/sea pansy (Renilla reniformis)‐luciferase activity in each well. The luciferase activities were quantified by a chemiluminescence assay with Dual‐Luciferase Reporter Assay System (Promega) in accordance with the manufacturer's instructions, and luminescence intensity of firefly and sea pansy luciferin was measured using a luminometer, TriStar LB941 (Berthold Technology, Oak Ridge, TN, USA).
Effect concentrations, that is, EC50 (a half maximal effective concentration) in the agonist assay and IC50 (a half maximal inhibitory concentration) in the antagonist assay, were estimated by nonlinear curve fitting (e.g., three parameters logistic regression curve) using GraphPad Prism (GraphPad Software Inc., La Jolla, CA, USA).

IC50: 0.52 nM
SMILES: CC/C(=C(\c1ccc(O)cc1)c1ccc(OCCN(C)C)cc1)c1ccccc1 [4HTAM, 4‐hydroxytamoxifen]
